Measured values as given in patent US9815850B2, “Compounds, compositions and methods” (Denali Therapeutics Inc., priority 2016, dated 2017).
pIC50: −log10 of the molar value. Read-outs that look alike come from different tables or passages of the source.

Columns and labels:
[1] = test system: human cryopreserved hepatocytes; test: Metabolic stability (hepatocytes); type: in vitro ADME; details: well-stirred model
Description: Hepatic clearance is expressed as mL/min/kg.

[2] = target: P-gp (P-glycoprotein, MDR1) (Homo sapiens (Human), UniProt P08183); test: MDCKII-MDR1 permeability, efflux ratio; type: in vitro ADME; details: dog, MDCK-MDR1, pH 7.4, MDCKII-MDR1 cells, read-out: ER MDR1
P-gp (P-glycoprotein, MDR1), sequence (P08183 whole entry): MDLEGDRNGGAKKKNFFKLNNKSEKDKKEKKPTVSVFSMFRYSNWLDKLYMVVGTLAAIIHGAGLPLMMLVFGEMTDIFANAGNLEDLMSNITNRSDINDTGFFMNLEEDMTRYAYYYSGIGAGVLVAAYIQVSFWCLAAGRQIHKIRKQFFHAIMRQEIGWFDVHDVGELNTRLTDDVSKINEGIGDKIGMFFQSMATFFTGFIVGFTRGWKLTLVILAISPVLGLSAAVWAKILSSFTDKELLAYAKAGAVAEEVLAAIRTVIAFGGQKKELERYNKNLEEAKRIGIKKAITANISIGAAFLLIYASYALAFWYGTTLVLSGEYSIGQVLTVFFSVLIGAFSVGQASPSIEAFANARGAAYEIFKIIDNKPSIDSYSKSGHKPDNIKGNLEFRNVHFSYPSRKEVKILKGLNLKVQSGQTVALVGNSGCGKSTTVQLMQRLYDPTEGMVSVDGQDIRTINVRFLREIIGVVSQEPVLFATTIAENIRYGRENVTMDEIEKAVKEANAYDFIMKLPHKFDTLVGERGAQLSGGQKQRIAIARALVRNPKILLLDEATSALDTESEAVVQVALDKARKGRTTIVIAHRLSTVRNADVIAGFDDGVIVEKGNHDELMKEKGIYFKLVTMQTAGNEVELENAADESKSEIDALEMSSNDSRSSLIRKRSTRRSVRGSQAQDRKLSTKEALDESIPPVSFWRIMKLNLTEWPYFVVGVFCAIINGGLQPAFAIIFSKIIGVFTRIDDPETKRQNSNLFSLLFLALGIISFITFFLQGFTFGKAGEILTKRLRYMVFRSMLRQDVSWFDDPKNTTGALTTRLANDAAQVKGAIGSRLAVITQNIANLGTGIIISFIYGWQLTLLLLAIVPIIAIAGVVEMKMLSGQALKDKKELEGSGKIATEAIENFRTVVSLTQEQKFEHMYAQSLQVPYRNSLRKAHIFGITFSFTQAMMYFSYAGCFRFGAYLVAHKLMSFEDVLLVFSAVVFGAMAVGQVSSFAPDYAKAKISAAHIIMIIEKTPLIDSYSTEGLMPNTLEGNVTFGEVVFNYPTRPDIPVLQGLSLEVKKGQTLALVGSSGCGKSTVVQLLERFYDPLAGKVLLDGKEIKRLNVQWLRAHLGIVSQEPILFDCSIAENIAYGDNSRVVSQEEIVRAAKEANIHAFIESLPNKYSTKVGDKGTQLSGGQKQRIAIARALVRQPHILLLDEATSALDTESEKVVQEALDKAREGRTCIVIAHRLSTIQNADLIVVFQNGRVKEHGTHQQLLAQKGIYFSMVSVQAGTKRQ
Method: The blood brain barrier (BBB) separates circulating blood from the extracellular fluid of the central nervous system (CNS). The passive membrane permeability (Papp) and the P-gp (P-glycoprotein) substrate efflux potential were determined using the MDCKII-MDR1 cell line as an in vitro model of the effective permeability of a compound through the BBB. A bidirectional assay (Apical to Basolateral (A→B) and Basolateral to Apical (B→A)), in the absence and in the presence of GF120918 (a P-gp inhibitor) was conducted using pre-plated MDCKII-MDR1 cells (Corning HTS Transwell-96) obtained from SOLVO Biotechnology. The assay was run at 3 μM for 90 min (minutes) in triplicate using a HBSS+12.5 mM HEPES pH 7.4 transport buffer. Following incubation of samples from donor and receiver, wells were removed and measured by LC-MS/MS. Samples were extracted by protein precipitation with acetonitrile containing an appropriate internal standard (IS) having a known mass and molecular weight. The precipitate was centrifuged for 10 min at 3000 rpm (revolutions per minute). The supernatants were then collected, diluted if necessary, and injected on to the LC-MS/MS system. […] Papp (apparent permeability expressed in nm/sec [nanometer/second]) values were calculated according to the following equation: […]
Where dQ/dt is the permeability rate, C0 is the initial concentration in the donor solution (expressed as IS ratio), A and B are the surface areas of the filter (the surface area of the cell monolayer).
Monolayer efflux ratios (ER) were derived using the following equation: […]

[3] = test system: FADD-deficient Jurkat cells; test: Cellular necroptosis assay (human TNFα-induced); type: cell-based; details: read-out: Cell IC50
Method: Ten concentrations of the test compounds were assessed in duplicate in two different test occasions. […] The day of the experiment cells were diluted to a density of […] (5,000 cells/well) with culture medium and added (40 μL) into the 384-well plate containing 0.2 μL/well of test compounds and reference compounds (CRCs) (200×). Cell plates were then incubated at 37° C.-5% CO2. After 30 min, necroptotic cell death was induced with human TNFα (10 ng/mL) and cell viability was evaluated 48 h later by measuring cellular ATP levels using CellTiter-Glo® kit (Promega). Luminescence was read by using Victor V (Perkin Elmer) multilabel plate reader.

[4] = in vivo
Method: The protein binding in plasma was determined using a Rapid Equilibrium Dialysis Device (Thermo Scientific RED Device) or 96-well dialyzer apparatus (HTDialysis LLC). […] If required, plasma samples were pre-incubated (2 hours at 37° C.) with diisopropyl fluorophosphate (DFP) at the final concentration of 100 μM to prevent compound degradation due to amide hydrolysis. Appropriate volumes of spiked samples along with blank phosphate buffer were added to either device and incubated at 37° C. for a total of 5 hours with agitation at 500 rpm. Following incubation, an equal aliquot of dialysed matrix (plasma or buffer) is added to an equal volume of the opposite blank matrix such that the volume of buffer to plasma are equal. Mixed matrix samples were extracted by protein precipitation using acetonitrile containing the appropriate IS. Samples were then centrifuged for 10 min at 2800 rpm. Supernatants were collected and diluted and then injected on to an HPLC-MS/MS or UPLC-MS/MS system. Samples were analyzed by monitoring the appropriate parent/daughter ion transitions for the test and control compounds. The peak area ratios were used to measure test item concentrations. The fraction unbound (Afu) was determined as the ratio of the peak area ratio in buffer divided by the peak area ratio in plasma.
The PK properties of test articles were determined in male Sprague-Dawley Crl:CD(SD) rats, male Beagle dogs and male cynomolgus monkeys. Studies were conducted to the highest standards of animal welfare in accordance with national legislation and under approval of the internal animal care and use committees.
Compounds were administered by IV bolus to animals following an overnight fast. […] The formulations were administered at dose volumes ranging from 0.5-2 mL/kg. The IV dose ranged from 0.5-1 mg/kg.
Following dose administration, 8-9 serial blood samples were collected over 24 hours. Samples were mixed with anticoagulant and placed on wet ice prior to processing. Plasma was harvested following centrifugation, extracted using protein precipitation with acetonitrile containing IS. The processed supernatant was analyzed using UPLC or LC-MS/MS using specific parent/daughter ion pairs for the test article and IS. Plasma concentrations were determined using a calibration curve prepared using known concentrations of analyte. Pharmacokinetic parameters utilizing measured concentrations were calculated using Phoenix WinNonlin. The unbound plasma clearance was calculated as the ratio of the total body clearance divided by the fraction unbound in plasma.

[5] = target: GST-hRIPK1 (8-327) (Homo sapiens (Human), UniProt Q13546); test: Fluorescent Polarization Binding (FP Binding) assay; details: 10 nM GST-hRIPK1 (8-327), 5 nM fluorescent labeled ligand; read-out: FP IC50
GST-hRIPK1 (8-327), sequence (Q13546 8-327): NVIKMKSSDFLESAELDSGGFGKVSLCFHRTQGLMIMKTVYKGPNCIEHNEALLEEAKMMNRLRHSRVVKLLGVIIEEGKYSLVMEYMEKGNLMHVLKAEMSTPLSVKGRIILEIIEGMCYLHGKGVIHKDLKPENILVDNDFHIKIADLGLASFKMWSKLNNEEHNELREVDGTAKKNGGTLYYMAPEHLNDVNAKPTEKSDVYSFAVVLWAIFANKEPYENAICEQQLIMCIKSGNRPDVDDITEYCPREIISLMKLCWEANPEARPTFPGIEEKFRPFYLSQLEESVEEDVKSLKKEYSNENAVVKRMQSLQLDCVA
Method: Fluorescent Polarization Binding (FP Binding) assay (Berger S. B. et al. […] Maki J. L. et al. […] Test Compounds were serially diluted in DMSO at 100 fold final concentrations in the assay (1% DMSO final). […] For negative control the enzyme addition was replaced by assay buffer only. After addition of 5 μL of fluorescent labeled ligand at twice the final concentrations in assay buffer, the plate was incubated at RT for 30 min.

[6] = cynomolgus monkey, in vivo
[7] = human TNFα 10 ng/mL, viability after 48 h
[8] = male, Sprague-Dawley Crl:CD(SD)
[9] = Homo sapiens, 48 h, human TNFα 10 ng/mL, viability after 48 h

Structure (SMILES) | efflux ratio at 90 min, 3 μM [2] | Rat unbound CL [4, 8] | pIC50 [3, 9] | other results
CN1C(=O)[C@@H](NC(=O)c2nnc(Cc3ccccc3)o2)COc2ccccc21 [B, reference compound] | 1 | – | – | Human hepatocyte CLhep Avg [1]: 14 mL/min/kg
CN1C(=O)[C@@H](NC(=O)c2cc(Cc3ccccc3)on2)COc2ccccc21 [C, reference compound] | 0.9 | – | – | Human hepatocyte CLhep Avg [1]: 19 mL/min/kg
CN1C(=O)[C@@H](NC(=O)c2cc(C3(c4ccccc4)CC3)on2)COc2ccccc21 [Example 8, (S)-N-(5-methyl-4-oxo-2,3,4,5-tetrahydrobenzo[b][1,4]oxazepin-3-yl)-5-(1-phenylcyclopropyl)isoxazole-3-carboxamide] | 0.8 | 3700 mL/min/kg | – | pIC50 [3, 7]: 8.40
CN1C(=O)[C@@H](NC(=O)c2cc(Cc3ccccc3)on2)CC2(CC2)c2ccccc21 [Example 9, (S)-5-benzyl-N-(1-methyl-2-oxo-1,2,3,4-tetrahydrospiro[benzo[b]azepine-5,1′-cyclopropan]-3-yl)isoxazole-3-carboxamide] | – | – | – | pIC50 [3, 7]: 8.10
CN1C(=O)[C@@H](NC(=O)c2nc(Cc3ccccc3)n[nH]2)COc2cccnc21 [Example 42, (S)-5-benzyl-N-(5-methyl-4-oxo-2,3,4,5-tetrahydropyrido[3,2-b][1,4]oxazepin-3-yl)-4H-1,2,4-triazole-3-carboxamide] | – | – | – | pIC50 ([3]; Homo sapiens, 48 h): 9.22
CN1C(=O)[C@@H](NC(=O)c2nnc(Cc3ccccc3)[nH]2)[C@H]2C[C@H]2c2ccccc21 [Example 46A] | – | – | – | Rat unbound CL [4]: 188 mL/min/kg
CN1C(=O)[C@@H](NC(=O)c2cc(C3(c4ccccc4)CC3)on2)COc2cccnc21 [Example 77, (S)—N-(5-methyl-4-oxo-2,3,4,5-tetrahydropyrido[3,2-b][1,4]oxazepin-3-yl)-5-(1-phenylcyclopropyl)isoxazole-3-carboxamide] | 0.6 | 595 mL/min/kg | – | Human hepatocyte CLhep Avg [1]: 19 mL/min/kg; pIC50 [5]: 6.00 to 10.00
C[C@H]1Oc2cccnc2N(C)C(=O)[C@H]1NC(=O)c1nn(Cc2ccccc2)cc1F [Example 92, 1-benzyl-N-((2R,3S)-2,5-dimethyl-4-oxo-2,3,4,5-tetrahydropyrido[3,2-b][1,4]oxazepin-3-yl)-4-fluoro-1H-pyrazole-3-carboxamide] | 1.4 | 420 mL/min/kg | 9.15 | –
C[C@H]1Oc2cccnc2N(C)C(=O)[C@H]1NC(=O)c1nnc(Cc2ccccc2)[nH]1 [Example 94, 5-benzyl-N-((2R,3S)-2,5-dimethyl-4-oxo-2,3,4,5-tetrahydropyrido[3,2-b][1,4]oxazepin-3-yl)-4H-1,2,4-triazole-3-carboxamide] | 14 | 44 mL/min/kg | 8.22 | Cyno unbound CL ([6]; male): 40 mL/min/kg
C[C@H]1Oc2cccnc2N(C)C(=O)[C@H]1NC(=O)c1nnc(Cc2ccccc2)o1 [Example 134, 5-Benzyl-N-((2R,3S)-2,5-dimethyl-4-oxo-2,3,4,5-tetrahydropyrido[3,2-b][1,4]oxazepin-3-yl)-1,3,4-oxadiazole-2-carboxamide] | 1.1 | 100 mL/min/kg | 8.52 | Cyno unbound CL ([6]; male): 140 mL/min/kg
CN1C(=O)[C@@H](NC(=O)c2cc(Cc3ccccc3)on2)COc2cccnc21 [Example 142, (S)-5-Benzyl-N-(5-methyl-4-oxo-2,3,4,5-tetrahydropyrido[3,2-b][1,4]oxazepin-3-yl)isoxazole-3-carboxamide] | – | – | 9.15 | –
CN1C(=O)[C@@H](NC(=O)c2nnc(Cc3ccccc3)o2)COc2cccnc21 [Example 146, (S)-5-benzyl-N-(5-methyl-4-oxo-2,3,4,5-tetrahydropyrido[3,2-b][1,4]oxazepin-3-yl)-1,3,4-oxadiazole-2-carboxamide] | 1 | 61 mL/min/kg | 9.15 | Cyno unbound CL ([6]; male): 39 mL/min/kg
CN1C(=O)[C@@H](NC(=O)c2nnc(Cc3cccc(C#N)c3)[nH]2)COc2cccnc21 [Example 161, (S)-5-(3-cyanobenzyl)-N-(5-methyl-4-oxo-2,3,4,5-tetrahydropyrido[3,2-b][1,4]oxazepin-3-yl)-4H-1,2,4-triazole-3-carboxamide] | – | – | 8.70 | –
CN1C(=O)[C@@H](NC(=O)c2nnc(Cc3cccc(C#N)c3)[nH]2)COc2ccccc21 [Example 163, (S)-5-(3-cyanobenzyl)-N-(5-methyl-4-oxo-2,3,4,5-tetrahydrobenzo[b][1,4]oxazepin-3-yl)-4H-1,2,4-triazole-3-carboxamide] | – | – | 9.00 | –
CN1C(=O)[C@@H](NC(=O)c2ncn(Cc3cccc(C#N)c3)n2)COc2cccnc21 [Example 171, (S)-1-(3-cyanobenzyl)-N-(5-methyl-4-oxo-2,3,4,5-tetrahydropyrido[3,2-b][1,4]oxazepin-3-yl)-1H-1,2,4-triazole-3-carboxamide] | – | 32 mL/min/kg | – | –
C[C@H]1Oc2cccnc2N(C)C(=O)[C@H]1NC(=O)c1ncn(Cc2cccc(C#N)c2)n1 [Example 172, 1-(3-cyanobenzyl)-N-((2R,3S)-2,5-dimethyl-4-oxo-2,3,4,5-tetrahydropyrido[3,2-b][1,4]oxazepin-3-yl)-1H-1,2,4-triazole-3-carboxamide] | – | 65 mL/min/kg | 9.00 | –
CN1C(=O)[C@@H](NC(=O)c2nnc(Cc3ccccc3)o2)[C@H]2C[C@H]2c2nccnc21 [Example 177A] | – | – | – | Cyno unbound CL [6]: 58 mL/min/kg; Rat unbound CL [4]: 55 mL/min/kg
C[C@H]1Oc2ncccc2N(C)C(=O)[C@H]1NC(=O)c1nnc(Cc2ccccc2)o1 [Example 193, 5-benzyl-N-((3S,4R)-1,4-dimethyl-2-oxo-1,2,3,4-tetrahydropyrido[2,3-b][1,4]oxazepin-3-yl)-1,3,4-oxadiazole-2-carboxamide] | – | – | 6.68 | –
CN1C(=O)[C@@H](NC(=O)c2cn(Cc3ccccc3)nn2)[C@H]2C[C@H]2c2nccnc21 [Example 195, 1-benzyl-N-((7S,7aS,8aR)-5-methyl-6-oxo-5,6,7,7a,8,8a-hexahydrocyclopropa[d]pyrazino[2,3-b]azepin-7-yl)-1H-1,2,3-triazole-4-carboxamide] | – | – | 7.80 | –
CN1C(=O)[C@@H](NC(=O)c2cc(Cc3ccccc3)on2)[C@H]2C[C@H]2c2nccnc21 [Example 197, 5-benzyl-N-((7S,7aS,8aR)-5-methyl-6-oxo-5,6,7,7a,8,8a-hexahydrocyclopropa[d]pyrazino[2,3-b]azepin-7-yl)isoxazole-3-carboxamide] | – | – | 8.52 | –
[2H]C([2H])([2H])N1C(=O)[C@@H](NC(=O)c2nn(Cc3ccccc3)cc2F)[C@@H](C)Oc2ncccc21 [Example 205, 1-benzyl-N-((3S,4R)-1-trideuteriomethyl-4-methyl-2-oxo-1,2,3,4-tetrahydropyrido[2,3-b][1,4]oxazepin-3-yl)-4-fluoro-1H-pyrazole-3-carboxamide] | – | – | 7.68 | –
CN1C(=O)[C@@H](NC(=O)c2nnc(Cc3ccccc3)o2)CCc2ccccc21 [Example 225, (S)-5-benzyl-N-(1-methyl-2-oxo-2,3,4,5-tetrahydro-1H-benzo[b]azepin-3-yl)-1,3,4-oxadiazole-2-carboxamide] | – | – | – | pIC50 [5]: 6.00 to 10.00
CN1C(=O)[C@@H](NC(=O)c2ncc(Cc3ccccn3)o2)[C@H]2C[C@H]2c2nccnc21 [Example 226] | – | – | – | pIC50 [5]: 6.00 to 10.00
CN1C(=O)[C@@H](NC(=O)c2ncc(C(F)(F)c3ccccc3)o2)[C@H]2C[C@H]2c2nccnc21 [Example 227] | – | – | – | pIC50 [5]: 6.00 to 10.00
